pIC50: −log10 of the molar value. Like-named read-outs stand apart in the source and are kept apart here.
Assays:
[1] = test system: HS-18 cells; experiment: Cell cycle analysis (propidium iodide, FACS), HS-18; format: cell-based, human
Protocol: (§1) Exponentially growth cells were treated with or without drugs for several hours. Cells were then collected and fixed with ice-cold 70% methanol. DNA was stained with propidium iodide as described previously. Ten thousand stained cells were analyzed on a Becton Dickinson fluorescence-activated cell sorter (FACS).

[2] = test system: HT-1080; experiment: SRB cytotoxicity assay and Chou-Talalay combination index, HT-1080; format: cell-based, human
Protocol: (§2) Soft tissue sarcoma cell lines, HT-1080 and HS-18 were maintained as monolayer cultures in RP<I-1640 containing 10% fetal bovine serum.
(§3) Cytotoxicity to drugs was determined by SRB cytotoxicity assay carried out in 96-well microtiter plates as described. Cells were plated in duplicate wells (5000 cells/well) and exposed to drugs at different concentrations. Cells were fixed with 50% TCA solution for 1 h and 0.4% SRB (Sigma) was added to each well. After a 30 min incubation, the plate were washed with 1% acetic acid and read at 570 nm on a Biowhitaker microplate reader 2001. The wells with cells containing no drugs and with medium plus drugs but no cells were used as positive and negative controls, respectively.
(§4) Cells were seeded into 96-well plates, as described previously. Cells were treated with seven different concentrations of the single drugs or combinations mixture at 1:100 (ET-743: the other drugs) molar ratio. After 72 h exposure, growth inhibition was measured using the SRB assay.
(§5) Using the same experimental setup described above, we exposed cells to three different concentrations of drugs which represents the IC25, IC50, IC75 of ET-743, DXR, TMTX and paclitaxel, respectively. After 24 hours pre-treatment with ET743 or the combination drug, the second drugs were added to the respective wells for 48 h. Growth inhibition was determined using the SRB assay.)
(§6) The CI was calculated by the Chou-Talalay equation, which takes into account both potency (Dm or IC50) and the shape of the dose effect curve (the m value). The general equation for the classic isobologram (CI=1) is given by:
(§7) CI=(D)1/(Dx)1+(D)2/(Dx)2 (A)

[3] = test system: HT-1080 cells; experiment: Cell cycle analysis (propidium iodide, FACS), HT-1080; format: cell-based, human
Protocol: as §1

[4] = test system: HS-18; experiment: SRB cytotoxicity assay and Chou-Talalay combination index, HS-18; format: cell-based, human
Protocol: as §2, §3, §4, §5, §6, §7

[5] = test system: liver; settings: rat
Protocol: In the light of the antiinflammatory activity of dex, we investigated its effect on liver damage induced by ET-743 in the rat. Female Wistar rats received a single iv dose of ET-743 (40 μg/kg). Some rats were pretreated with a single oral dose of dex either at 1, 5, 10 or 20 mg/kg 24 h prior to ET-743 treatment. Liver pathology and plasma concentrations of alkaline phophatase (ALP), aspartate aminotransferase (GOT) and total bilirubin (TB) were assessed up to 3 days post ET-743 administration. Conventional histological sections of the livers were examined by light microscopy.

[6] = test system: murine fibrosarcoma UV2237; experiment: ET-743/doxorubicin against murine fibrosarcoma UV2237 in mice; format: in vivo; settings: alone or combination
[7] = test system: UV2237/ADR; experiment: ET-743/doxorubicin against mdr-resistant subline UV2237/ADR in mice; format: in vivo, murine; settings: alone or combination
[8] = test system: human rabdomyosarcoma zenograft TE671; experiment: ET-743/doxorubicin against TE671 xenograft in athymic (nude) mice; format: in vivo; settings: for antitumor effect in words: TE671 in mice, alone or combination; for Log 10 Cell Kill (LCK) / tumor weight inhibition (TWI): single i.v. treatment at tumor approx. 100 mg, drug alone (ET-743 0.1 mg/kg; Dx 10 mg/kg)
Protocol: In vivo: Single iv treatments (ET-743, 0.1 mg/Kg; DOX, 10 mg/Kg) were administered in nude mice when xenograft tumors weighed approximately 100 mg.

[9] = Biodistribution/PK of DOX with ET-743 in nude mice with tumor xenografts; format: in vivo; settings: DOX alone vs concomitant treatment with ET-743
Text: ET-743 has shown activity in patients with sarcoma refractory to DOX and ifosfamide. In view of its potential as an effective drug, we investigated (1) the preclinical anti-tumor activity of ET-743/DOX combination against the human rhabdomyosarcoma TE 671 and (2) possible interactions between the drugs and their biodistribution in nude mice and tumor xenografts.
The pharmacokinetic (PK) evaluation of ET-743 given alone or in combination with DOX is underway.

[10] = test system: TE 671 cells; experiment: Clonogenic assay ET-743/DOX, TE 671; format: cell-based, human; settings: 1 hr exposures, isobologram analysis and Combination Index
Protocol: In vitro: The effect of each drug or combination after 1 hr exposures was evaluated by clonogenic assay.

[11] = test system: sc transplanted TE671; experiment: ET-743/DDP against sc transplanted TE671; format: in vivo, human; settings: single drugs at MTD or combination
[12] = test system: ovarian 1 A 9 tumor; experiment: ET-743/DDP against ovarian 1A9 tumor in vivo; design: species or system human; settings: single agents
Text: The ovarian 1 A 9 tumor that is normally resistant to both ET-743 and DDP as single agents, in combination produced a tumor growth inhibition greater than 50%.

[13] = test system: human ovarian carcinoma HOC8; experiment: ET-743/DDP against orthotopically transplanted HOC8; format: in vivo; settings: HOC8 orthotopic, peritoneal nodules with ascites; single agents
[14] = test system: fibrosarcoma (SW684); experiment: Hollow fiber (HF) model, fibrosarcoma; format: in vivo; settings: DOX 8 mg/Kg 1 hr pre-Et743 0.2 mg/Kg vs Et743 alone, qdx5
Text: (§8) Osteosarcoma xenografts produced similar results of 17% vs. 43%. […] The one exception was in NSCL were Et743 alone was not active (62% T/C) but DPP followed by Et743 produced CR (<1% T/C). In renal xenografts Et743 alone was very active (22% T/C) but Et743 followed by VINB also produced CR (<1% T/C). Separate studies are underway with other standard agents in breast, renal, melanoma and gastric tumor xenografts.

[15] = test system: mismatch repair (MMR) deficient cells; settings: MMR deficient vs proficient cells; previous studies; cited from earlier work
[16] = test system: NER deficient cells; settings: NER deficient cells very sensitive to cisplatin; previous studies; cited from earlier work
[17] = test system: ovary (MRI-H-1834); experiment: Hollow fiber (HF) model, ovary; format: in vivo; settings: Et743 0.2 mg/Kg pre-DDP 12 mg/Kg vs Et743 alone
Text: as §8

[18] = test system: breast carcinoma (MX-1); settings: Hendriks et al. 1999; cited from earlier work
[19] = test system: renal (MRI-H-121); experiment: Renal xenografts, Et743 and VINB; format: in vivo; settings: Et743 alone vs Et743 followed by VINB 6 mg/Kg
Text: as §8

[20] = test system: NSCL (LXFL 529); settings: Hendriks et al. 1999; cited from earlier work
[21] = test system: osteosarcoma (OSA-FH); experiment: Osteosarcoma xenografts; format: in vivo; settings: DOX 1 hr pre-Et743 vs Et743 alone
Text: as §8

[22] = test system: ovary (HOC 22); settings: Hendriks et al. 1999; cited from earlier work
[23] = test system: chondrosarcoma (CSHA); experiment: Hollow fiber (HF) model, chondrosarcoma; format: in vivo
Text: as §8

[24] = test system: osteosarcoma (OSA-FH); experiment: Hollow fiber (HF) model, osteosarcoma; format: in vivo
Text: as §8

[25] = test system: xenograft; experiment: Xenograft, Et743 pre-DDP (tumor not named); format: in vivo; settings: xenograft data; Et743 pre-DDP vs Et743 alone
Text: as §8

[26] = test system: melanoma (MEXF 989); settings: Hendriks et al. 1999; cited from earlier work
[27] = test system: NSCL (LX-1); experiment: NSCL tumor, Et743 and DDP; format: in vivo; settings: Et743 alone vs DDP followed by Et743
Text: as §8

[28] = Plasma levels of ET-743 in rats pretreated with dex; format: in vivo; settings: rats given dex 50 mg/kg daily for 3 days prior to ET-743, compared to ET-743 alone
Protocol: (§9) Plasma levels of ET-743 in rats which received dex (50 mg/kg) daily for 3 days prior to ET-743 were not decreased compared to those in rats on ET-743 alone. Furthermore, the activity of ET-743 against B16 melanoma implanted into mice was not impeded by dexamethasone.

[29] = test system: B16 melanoma; experiment: Activity of ET-743 against B16 melanoma with dexamethasone; format: in vivo; settings: mice
Protocol: as §9

[30] = 24 h after treatment with approximate IC50 dose
[31] = 72 h after treatment with approximate IC50 dose
[32] = Homo sapiens, HT-1080, 72 h, read-out: IC50 for human soft tissue sarcoma cells, HT-1080
[33] = Homo sapiens, 72 h, read-out: IC50 for human soft tissue sarcoma cells, HS-18
[34] = ET-743 40 μg/kg iv alone, after 2 days
[35] = DOX 8 mg/Kg 1 hr pre-Et743 0.2 mg/Kg vs Et743 alone, qdx5

COc1cc(NCc2ccc3nc(N)nc(N)c3c2C)cc(OC)c1OC [TMTX, trimetrexate]
% G1 [1, 30]: 44.2% | % G2-M [1, 30]: 1.9% | % S phase [1, 30]: 53.8% | % G1 [1, 31]: 35.5% | % G2-M [1, 31]: 7.0% | % S phase [1, 31]: 57.6% | pIC50 [2, 32]: 8.22 | % G1 [3, 30]: 31.9% | % G2-M [3, 30]: 11.3% | % S phase [3, 30]: 56.8% | % G1 [3, 31]: 32.0% | % G2-M [3, 31]: 14.4% | % S phase [3, 31]: 53.7% | pIC50 [4, 33]: 4.15

C[C@@H]1C[C@H]2[C@@H]3CCC4=CC(=O)C=C[C@]4(C)[C@@]3(F)[C@@H](O)C[C@]2(C)[C@@]1(O)C(=O)CO [dex, dexamethasone]
protection against ET-743 liver damage ([5]; dex 1 mg/kg single oral dose 24 h prior to ET-743): little protection | protection against ET-743 liver damage ([5]; dex 5 mg/kg single oral dose 24 h prior to ET-743): moderately protective | effect on ET-743-induced histopathological changes and elevation of plasma ALP, GOT and TB ([5]; dex 10 mg/kg single oral dose 24 h prior to ET-743 40 μg/kg iv): totally abrogated | effect on ET-743-induced histopathological changes and elevation of plasma ALP, GOT and TB ([5]; dex 20 mg/kg single oral dose 24 h prior to ET-743 40 μg/kg iv): totally abrogated

COc1cccc2c1C(=O)c1c(O)c3c(c(O)c1C2=O)C[C@@](O)(C(=O)CO)C[C@@H]3O[C@H]1C[C@H](N)[C@H](O)[C@H](C)O1 [Dx, doxorubicin]
antitumor effect in words [6]: effective | antitumor effect in words [7]: inactive or marginally active | % G2-M [1, 30]: 25.0% | % S phase [1, 30]: 64.9% | % G1 [1, 31]: 1.3% | % G2-M [1, 31]: 34.9% | % S phase [1, 31]: 63.8% | antitumor effect in words [8]: inactive or marginally active | Log 10 Cell Kill (LCK) [8]: 0.33 | tumor weight inhibition (TWI) [8]: 50% | PK profile of DOX (plasma and tumor concentrations) [9]: not influenced | anti-tumor activity / interaction in clonogenic assay [10]: showed anti-tumor activity | pIC50 [2, 32]: 7.60 | % G1 [3, 30]: 36.1% | % S phase [3, 30]: 17.5% | % G1 [3, 31]: 46.2% | % S phase [3, 31]: 5.3% | pIC50 [4, 33]: 6.65

CC(=O)O[C@H]1C(=O)[C@@]2(C)[C@H]([C@H](OC(=O)c3ccccc3)[C@]3(O)C[C@H](OC(=O)[C@H](O)[C@@H](NC(=O)c4ccccc4)c4ccccc4)C(C)=C1C3(C)C)[C@]1(OC(C)=O)CO[C@@H]1C[C@@H]2O [Paclitaxel]
% G1 [1, 30]: 32.8% | % G2-M [1, 30]: 15.5% | % S phase [1, 30]: 52.5% | % G1 [1, 31]: 23.5% | % G2-M [1, 31]: 26.2% | % S phase [1, 31]: 58.7% | pIC50 [2, 32]: 8.89 | % G1 [3, 30]: 45.4% | % G2-M [3, 30]: 17.3% | % S phase [3, 30]: 37.3% | % G1 [3, 31]: 86.0% | % G2-M [3, 31]: 5.0% | % S phase [3, 31]: 9.0% | pIC50 [4, 33]: 8.00

N.N.[Cl][Pt][Cl] [DDP, cisplatin]
antitumor effect in words [11]: partially sensitive | sensitivity of tumor to single agent [12]: resistant | sensitivity of tumor to single agent [13]: partially sensitive

Ecteinascidin 743 [ET-743]
antitumor effect in words [6]: effective | Plasma levels of ALP [5, 34]: significantly elevated | Plasma levels of GOT [5, 34]: significantly elevated | plasma TB concentrations ([5]; ET-743 40 μg/kg iv alone, commenced on day 2): dramatic increase | liver pathology ([5]; ET-743 40 μg/kg single iv alone, 2 days post treatment): bile duct inflammation, striking degenerative changes in biliary epithelial cells and zones of hepatic necrosis | T/C [14]: 48% | antitumor effect in words [7]: inactive or marginally active | antitumor effect in words [11]: partially sensitive | sensitivity to ET-743 compared with proficient cells [15]: equally sensitive | times less sensitive to ET-743 [16]: 6-8 times | T/C [17]: 100% | in vivo tumor growth inhibition, single agent [18]: complete remissions | T/C [19]: 22% | in vivo tumor growth inhibition, single agent [20]: complete remissions | T/C [21]: 43% | in vivo tumor growth inhibition, single agent [22]: complete remissions | T/C [23, 35]: 10% | T/C ([23]; Et743 0.2 mg/Kg pre-DDP 12 mg/Kg vs Et743 alone): 19% | T/C [24, 35]: 34% | T/C ([24]; Et743 pre-DDP and Et743 alone, equivalent activities): 36% | sensitivity of tumor to single agent [12]: resistant | sensitivity of tumor to single agent [13]: resistant | T/C [25]: 66% | % G1 [1, 30]: 32.4% | % G2-M [1, 30]: 20.0% | % S phase [1, 30]: 47.6% | % G1 [1, 31]: 86.7% | % G2-M [1, 31]: 4.9% | % S phase [1, 31]: 8.4% | in vivo tumor growth inhibition, single agent [26]: complete remissions | T/C [27]: 62% | antitumor effect in words [8]: inactive or marginally active | Log 10 Cell Kill (LCK) [8]: 0.132 | tumor weight inhibition (TWI) [8]: 46% | Plasma levels of ET-743 [28]: not decreased | activity of ET-743 against B16 melanoma [29]: not impeded | anti-tumor activity / interaction in clonogenic assay [10]: showed anti-tumor activity | pIC50 ([2]; HT 1080 fibrosarcoma cell line, read-out: IC50): 11.00 | % G1 [3, 30]: 42.6% | % G2-M [3, 30]: 21.3% | % S phase [3, 30]: 36.1% | % G1 [3, 31]: 83.1% | % G2-M [3, 31]: 6.7% | % S phase [3, 31]: 10.2% | pIC50 ([4]; HS-18 liposarcoma cell line, read-out: IC50): 9.57

— patent US20120107417A1, “Effective Antitumor Treatments” (PHARMA MAR, S.A., priority 2000, published 2012)
